Laboratory results as given in patent US8158682B2, “Instillation administration of capsaicinoids for the treatment of pain” (Vallinex, Inc., priority 2008, dated 2012).
Where “and” joins values, the source holds several entries; their conditions need not be identical. Equal values may be shown once. Entries after “also recorded” stand apart in the source; their conditions may differ.

Tests used:
[1] = cited from earlier work
osteotomy site = assay: Femur osteotomy: histology and biomechanical testing (4-point bending); format: in vivo, rat
Protocol: (§1) Adult CD Charles River rats were anesthetized with isoflurane and oxygen. Extrafascicular instillation: The sciatic nerve was exposed by blunt dissection and 100 μl of test article was applied directly to the sciatic nerve). Treatment groups received either vehicle (25% PEG 300), 0.0083 mg capsaicin (≧98% pure) or 0.025 mg capsaicin dissolved in vehicle. […] Osteotomy: The lateral aspect of the right femur was exposed and cut at the midshaft using an oscillating saw. An intramedullary Kirshner wire was inserted for fracture reduction and the osteotomy site irrigated with 100 μl of the vehicle (20% PEG 300, 10 mM histidine and 5% (w/v) sucrose) or 0.5 mg capsaicin diluted in vehicle.
(§2) Histology: Rats were euthanized by intraperitoneal injection of sodium pentobarbital (90 mg/Kg) followed by transcardiac perfusion with 0.9% saline then 3% paraformaldehyde and 3% glutaraldehyde in 0.1 M phosphate buffer. The entire length of sciatic nerve was embedded in paraffin or plastic and representative sections were taken from the treatment site and proximal and distal sites and stained with hematoxylin and eosin (H&E). Sections were scored for neuronal and myelin integrity, appearance and inflammation.
Biomechanical Testing: Both osteotomized and contralateral whole femurs were tested in 4-point bending with a servohydrolic material test system (858 Mini Bionix) to determine the material properties of the cortical bone. Peak load, energy to break (area under the curve) and stiffness were derived. Peak load was measured as the maximum height of the load-displacement curve, and stiffness was measured as the slope of the linear portion of the load-displacement curve.
(§3) Statistics: Levene's test was used to assess homogeneity of group variances for each specified end point and for each data collection interval. If Levene's test was not significant (P>0.01), a pooled estimate of the variance (Means Square Error) was computed from a one-way analysis of variance (ANOVA) and utilized by Dunnett's comparison of each treatment group with the control group. If Levene's test was significant (P<0.01), comparisons with the control group were made using Welch's t-test with a Bonferroni correction.

rat paw incision model [2] = assay: Rat paw incision model, postsurgical mechanical hyperalgesia (paw withdrawal threshold, up-down); format: in vivo
Protocol: (§4) Male Sprague-Dawley rats (Chrales River Laboratories, Inc., Wilimington, Mass., 225-250 g) were anesthetized with 2% isoflurane delivered via nose cone. Ten to 15 minutes before surgery, 100 μL of 2% lidocane was injected in the plantar surface of the right hind paw. A 1 centimeter incision (number 15 scalpel blade) was make through the skin, muscle, and fascia of the anesthetized paw, starting 5 mm from the proximal edge of the heel and extending toward the toes. After elevating the incised tissue, 20 μL of capsaicin formulation or vehicle were instilled into the surgical incision, allowed to dwell for pre-specified times, and then removed via aspiration using a cotton swab. The incision was apposed with 4 single interrupted mattress sutures of 5-0 nylon thread.
(§5) Animals were tested on the day before surgery (baseline) and on days 1, 2, 3, and 6 after surgery. Thermal sensitivity was assessed by thermal paw withdrawal latency as described by Hargreaves et al. (Hargreaves et al., J. Pain 32:77-88 (1988)). Mechanical hyperalgesia was assessed by the “up-down” algorithm of Chaplan et al. (Chaplan et al., J. Neurosci. Methods 53:55-63 (1994)).
In this study, animals in the active treatment groups received an intraoperative instillation of capsaicin (5 μg per 20 μL 50% PEG-300) for the designated times. Animals in the control groups received 20 μL of 50% PEG-300 for 5 minutes (vehicle). Graph points represent mean values; error bars are ±SEM.
In this study, animals in the active treatment groups received 5 minute intraoperative instillations of capsaicin (5, 15, or 75 μg per 20 μL of 50% PEG-300). Animals in the control groups received 5 minute intraoperative instillations of 20 μL of 50% PEG-300 (vehicle) or subcutaneous injection of buprenorphine (50 μg/kg) 1 hour before behavioral testing (Bup). Bars represent mean values; error bars are ±SEM.
In this study, animals in the active treatment groups received 5 minute intraoperative instillations of capsaicin (5, 15, or 75 μg per 20 μL of 50% PEG-300). Animals in the control groups received 5 minute intraoperative instillations of 20 μL of 50% PEG-300 (vehicle). Graph points represent mean values; error bars are ±SEM.

rat paw incision model [3] = assay: Rat paw incision model, postsurgical thermal hyperalgesia (thermal paw withdrawal latency); format: in vivo; conditions: for ED10 / ED20 / ED50: analgesic intensity, thermal hyperalgesia; for ED50: 5 minute intraoperative instillation
Protocol: as §4, §5
In this study, animals in the active treatment groups received an intraoperative instillation of capsaicin (5 μg per 20 μL 50% PEG-300) for the designated times. Animals in the control groups received 20 μL of 50% PEG-300 for 5 minutes (vehicle) or no intraoperative treatment (sham). Graph points represent mean values; error bars are ±SEM.
In the study, animals in the active treatment groups received 5 minute intraoperative instillations of capsaicin formulation (1.5 μg to 150 μg per 20 μL of 50% PEG-300). Animals in the control groups received 5 minute intraoperative instillations of 20 μL of 50% PEG-300 (vehicle) or 5 minute intraoperative instillations of 20 μL of 50% PEG-300 plus subcutaneous buprenorphine (50 μg/kg) 1 hour before behavioral testing (Bup). Bars represent mean values; error bars are ±SEM.
The experimental data from FIG. 2 were used to calculate analgesic intensity (AI) as follows: AI(%)=100×([PWLtreat−PWLbasal]/[cut-off−PWLbasal]), where PWLtreat was the paw withdrawal latency after capsaicin treatment, PWLbasal was the paw withdrawal latency on day 1 after vehicle treatment, and cut-of was 20 seconds. […] (CI=confidence interval)

sciatic nerve = assay: Extrafascicular instillation on sciatic nerve: body weight, behavioral testing, nerve histology; format: in vivo, rat
Protocol: as §1
Behavioral testing: Individual rats were placed in a black plexiglass observation box and parameters including posture, rearing, vocalization, bizarre behavior, mobility, and stereotypy were evaluated based on the methods of Moser et al. (Moser et al., Fundam. Appl. Toxicol. 11: 189-206 (1988)). Forelimb and hindlimb grip strength was measured using a strain gauge that recorded the maximum force in Kg as described by Meyer (Meyer et al. Neurobehav. Toxicol. 1:233-236 (1979) and Meyer and Ross (1966) U.S. Environmental Protection Agency, Wasington, D.C.) Hindlimb splay was quantitatively measured as described by Edwards et al. (Edwards et al., Toxicol Appl. Pharmacol. 40:589-591 (1977)). Thermal response was measured using the hot plate test as previously described by Ankier (Aniker Eur. J. Pharmacol. 27:1-4 (1974). The hot plate was set at 52° C. and the latency between placement of the animal on the heated surface and the first paw lick was recorded. The test was administered three times at predose and at days 3, 14 and 28 post-surgery and the values averaged.
as §2, §3

[4] = 0.5 mg, right femur, vs vehicle (FIG. 14)
[5] = intraoperative instillation, rat paw incision model

**Q.** Which results are given for `COc1cc(CNC(=O)CCCC/C=C/C(C)C)ccc1O` [capsaicin, N-(4-hydroxy-3-methoxybenzyl)-8-methylnon-trans-6-enamide]?
**A.** solubility in organic solvents ([1]; alcohol, ether, benzene and chloroform): freely soluble; solubility in water ([1]; water): practically insoluble; osteotomy site histology (H&E) (osteotomy site; 0.5 mg vs vehicle (FIG. 13)): show no differences; general integrity of bone structure (AUC, energy to break) (osteotomy site; [4]): no difference; peak load (osteotomy site; [4]): no difference; stiffness (osteotomy site; [4]): no difference; adverse effects on wound and bone healing following osteotomy (osteotomy site; instillation, summary): no observable adverse effects; postsurgical mechanical hyperalgesia (PWT) (rat paw incision model [2]; 5 μg per 20 μL 50% PEG-300, designated dwell times (FIG. 4)): did not reduce postsurgical mechanical hyperalgesia; also recorded: does not reduce postsurgical mechanical hyperalgesia; postsurgical mechanical hyperalgesia (PWT) (rat paw incision model [2]; 75 μg, 5 minute instillation, vs vehicle (FIG. 5)): produced significant analgesic effects relative to vehicle; also recorded: reduces postsurgical mechanical hyperalgesia; postsurgical mechanical hyperalgesia (PWT) over time (rat paw incision model [2]; 75 μg, 5 minute instillation, vs vehicle, days 1 and 3 (FIG. 6)): greater after an instillation of 75 μg capsaicin formulation than vehicle; also recorded: reduces postsurgical mechanical hyperalgesia; dose dependence of reduction of postsurgical mechanical hyperalgesia (rat paw incision model [2]; 5, 15 or 75 μg per 20 μL 50% PEG-300, 5 minute instillation (FIG. 5)): dose-dependant; dose dependence of reduction of postsurgical thermal hyperalgesia (rat paw incision model [3]; 1.5 μg to 150 μg per 20 μL 50% PEG-300, 5 minute instillation (FIG. 2)): dose-dependant; also recorded: dose-dependent; postsurgical thermal hyperalgesia (PWL) (rat paw incision model [3]; 5 μg per 20 μL 50% PEG-300, instillation 5 or 10 minutes, post-surgical days 1, 2, 3, vs vehicle and sham (FIG. 1)): significantly lower thermal hyperalgesia; also recorded: reduces postsurgical thermal hyperalgesia; ED10 (rat paw incision model [3]; day 1 after surgery): 3.46 µg; ED20 (rat paw incision model [3]; day 1 after surgery): 7.77 µg; ED50 (rat paw incision model [3]; day 1 after surgery): 31.01 µg; ED10 (rat paw incision model [3]; day 2 after surgery): 2.99 µg; ED20 (rat paw incision model [3]; day 2 after surgery): 8.38 µg; ED50 (rat paw incision model [3]; day 2 after surgery): 48.53 µg; ED10 (rat paw incision model [3]; day 3 after surgery): 1.84 µg; ED20 (rat paw incision model [3]; day 3 after surgery): 6.09 µg; ED50 (rat paw incision model [3]; day 3 after surgery): 47.09 µg and 47.08 µg; duration of sustained analgesia (rat paw incision model [3]; [5]): up to 6 days; potency against thermal versus mechanical hyperalgesia (rat paw incision model [3]; [5]): higher potency against postsurgical thermal hyperalgesia than mechanical hyperalgesia; sciatic nerve histology (H&E), appearance (sciatic nerve; 0.025 mg extrafascicular instillation, 3 days or 28 days post treatment, vs sham operated (FIG. 12)): no difference in appearance; activity/arousal (sciatic nerve; extrafascicular instillation (FIG. 8)): does not effect activity/arousal; hindpaw splay (sciatic nerve; extrafascicular instillation (FIG. 10)): no effect on hindpaw splay; thermal withdrawal (hot plate, 52° C.) (sciatic nerve; extrafascicular instillation (FIG. 11)): no effect on thermal withdrawal; adverse effects on structural integrity of exposed nerve (sciatic nerve; extrafascicular instillation, summary): no observable adverse effects; weight gain (sciatic nerve; extrafascicular instillation, first 10 post-operative days, vs sham-operated rats (FIG. 7)): reduces weight gain; hindpaw grip strength (sciatic nerve; extrafascicular instillation, post operative days 3 and 14 (FIG. 9)): decreases hindpaw grip strength
